According to US4968788A, “Biologically reversible phosphate and phosphonate protective gruops” (Board of Regents, The University of Texas System, priority 1989, dated 1990):

Tests used:
[1] = test system: Chinese hamster ovary cells; test: prevention of growth of Chinese hamster ovary cells in culture; assay type: cell-based
Experimental: Example 5 was repeated with the R substituent changed to fluorine (i.e., 2',5-dideoxy-5'-iodo-3'-O-acetyl-5-fluorouridine). There was a 15% yield of this product. This composition prevented the growth of Chinese hamster ovary cells in culture at a concentration of 5.0×10^-6 M [5-fluoro-2'-deoxyuridine (5-FUdR) control, 1.0×10^-6 M].
(§1) was incubated at […] with mouse plasma and hog liver carboxylate esterase.

[2] = test system: P388 leukemia which is resistant to 5-fluorouracil; test: activity against P388 leukemia resistant to 5-fluorouracil; details: P388 resistant to 5-fluorouracil
[3] = test system: hog liver carboxylate esterase; test: degradation on incubation with hog liver carboxylate esterase; assay type: in vitro ADME
Experimental: (§2) (At appropriate intervals, aliquots (100 μl) of the incubation mixtures were diluted with 3 volumes of methanol and then agitated for 1 minute on a Vortex shaker. The precipitated protein was separated by centrifugation at 10,000×g for 5 minutes, and the supernatants were analyzed by HPLC as described above.)
as §1

[4] = degradation on incubation with mouse plasma; assay type: in vitro ADME
Experimental: as §2, §1

[5] = physchem; assay type: physicochemical
Experimental: Several tests have been performed with both types of protected compositions. […] The stabilities of these protected compositions were determined in aqueous buffered solutions having pH ranging from 1 to 10, and also under selected biological conditions. Except for the acetoxymethyl derivatives of the second type, these phosphoesters were relatively stable in a neutral environment. They reverted to their parent compounds in acidic or basic media.
The protected product was stable in neutral aprotic solvents such as benzene, diethyl ether and ethyl acetate. […] The half-life was greater than 4 hours.
These solutions were analyzed by (HPLC) high performance liquid chromatography (Waters model ALC 204). The disappearance of the bis(acyloxymethyl) phosphate was monitored by reversed-phase chromatography on a column of μ Bondapak-C18 (30 cm×4 mm i.d., 10 μm; Waters Assoc., Milford, Mass.) using solutions of 0.01M potassium phosphate buffer (pH 7.0) with methanol as the mobile phase (typically 25-50% alcohol).
The formation of intermediate B and mono(acetoxymethyl) phosphate C was monitored by ion-pair chromatography on μ Bondapak-C using the same buffer system as described above, except that tetrabutylammonium hydroxide was added to a concentration 2×10^-3 M, or by anion-exchange chromatography on a column of Partisil SAX (25 cm×4.6 mm i.d., 10 μm; Whatman) using a linear gradient of 0.01-0.1M potassium phosphate buffer (pH 6.5) as an eluent. The flow rates for these analyses and the ones described above ranged from 1.0 to 2.0 ml/min. The column effluents were monitored at 254 nm with a Schoeffel model 450 UV detector, and the concentrations were determined by comparison of the peak areas with those of reference standards.

[6] = degradation on incubation with hog liver carboxylate esterase; assay type: in vitro ADME; details: pig, liver carboxylate esterase; 65 micrograms per milliliter, 37° C., pH 7.4, 8 milligrams protein per milliliter
Experimental: as §2, §1

[7] = 65 micrograms per milliliter, 37° C., 0.05M potassium phosphate buffer (pH 7.4), mouse plasma 50% by volume

O=c1[nH]c(=O)n([C@H]2C[C@H](O)[C@@H](CO)O2)cc1F [Example 5-FUdR, 5-fluoro-2'-deoxyuridine, reference compound]
minimal effective concentration ([1]; Cricetulus griseus, read-out: concentration that prevented the growth of Chinese hamster ovary cells): 1 µM

CC(=O)O[C@H]1C[C@H](n2cc(F)c(=O)[nH]c2=O)O[C@@H]1COP(=O)(OCOC(=O)C(C)(C)C)OCOC(=O)C(C)(C)C [Example 7]
concentration that prevented the growth of Chinese hamster ovary cells [1]: 1 µM
activity against P388 leukemia [2]: active
cleavage of acyloxymethyl groups and 3'-acetyl group with hog liver carboxylate esterase [3]: successively cleaved to give 5-FdUMP
cleavage of acyloxymethyl groups and 3'-acetyl group in mouse plasma [4]: successively cleaved to give 5-FdUMP

CC(=O)O[C@H]1C[C@H](n2cc(F)c(=O)[nH]c2=O)O[C@@H]1COP(=O)(OCOC(=O)C(C)(C)C)OCOC(=O)C(C)(C)C [Example 6]
concentration that prevented the growth of Chinese hamster ovary cells [1]: 5 µM

CC(C)(C)C(=O)OCOP(=O)(OCOC(=O)C(C)(C)C)Oc1ccccc1 [Example 3, bis(pivaloyloxymethyl) phenyl phosphate]
resistance to both chemical and enzymatic hydrolysis ([4]; compared with the protected composition of Example 1 (so in the source)): much more resistant
half-life ([4]; pH 7.4, incubated with mouse plasma under the same conditions as in Example 2): ~5 h
stability in protonic solvents ([5]; protonic solvents): stable in protonic solvents

CC(C)(C)C(=O)OC1CCOP(=O)(Oc2ccccc2)O1 (stereo not shown) [Example 1]
reversion to phenyl phosphate in mouse plasma ([4]; 37° C., 30 minutes, mouse plasma): reverted to phenyl phosphate
stability in organic solvents or aqueous buffers ([5]; organic solvents or aqueous buffers): stable
conversion to phenyl phosphate with strong acids or bases ([5]; strong acids or bases): quantitatively converted to phenyl phosphate

CC(=O)OCOP(=O)(OCOC(C)=O)Oc1ccccc1 [Example 2, bis(acetoxymethyl) phenyl phosphate]
half-life [6]: < 0.25 h
degradation by hog liver carboxylate esterase (first to mono(acetoxymethyl) analog, then to phenyl phosphate) ([3]; 65 micrograms per milliliter, 37° C., pH 7.4, 8 milligrams protein per milliliter): rapidly degraded
degradation in mouse plasma (first to mono(acetoxymethyl) analog, then to phenyl phosphate) [4, 7]: rapidly degraded
half-life [4, 7]: < 0.25 h
conversion in protonic solvents ([5]; ethanol, water or 0.05M potassium phosphate buffer (pH 7.4)): slowly converted to mono(acetoxymethyl) phenyl phosphate
half-life ([5]; ethanol, water or 0.05M potassium phosphate buffer (pH 7.4), read-out: half-life in protonic solvents): > 4 h
stability in neutral aprotic solvents ([5]; neutral aprotic solvents such as benzene, diethyl ether and ethyl acetate): stable
